One data set has as its system Albino Swiss mice. In words: DOI-induced head twitch test (HTR). Format: in vivo. As to conditions: DOI 2.5 mg/kg i.p. Here is the method: The compounds were dissolved in a small amount of 100% EtOH and then adjusted with 20% cyclodextrin, and the pH was adjusted to 6.0. The investigated compounds were administered intraperitoneally (i.p.) 60 min before the behavioural test. Control drugs i.e. diazepam, clozapine and imipramine (Sigma–Aldrich, St. Louis, USA), were administered i.p. 60 min before the behavioural test. Cyclodextrin (20%) was used as a vehicle. All solutions were prepared immediately prior to the experiments and were administered at a constant volume of 10 ml/kg.
The experiments were performed according to the procedure described in our previous studies[75]^,[80]. Briefly, to habituate mice to the experimental environment, each animal was transferred to a 12 cm (diameter) × 20 cm (height) glass cage lined with sawdust 30 min before treatment. Test compounds were administered intraperitoneally (i.p.) at doses of 2.5, 5, and 10 mg/kg body weight 60 min before the test was performed. The head twitch response (HTR) in mice was induced by DOI (2.5 mg/kg, i.p.). Immediately after treatment, the number of head twitches was counted during a 20 min session. Haloperidol and clozapine were used as the reference compounds at active doses of 0.2 and 5 mg/kg, respectively.

The nature of data set [1]: pharmacokinetic study, plasma and brain, after i.p. administration. As to conditions: mouse, 10 mg/kg i.p.; for AUC / Cmax / half-life / Tmax: male, Albino Swiss, ip; for AUC: read-out: AUC (area under the curve); for Cmax: read-out: Cmax (maximum concentration); for half-life: read-out: T1/2 (terminal elimination half-life) (converted). It is filed as in vivo, mice (male Albino Swiss). The protocol:
The pharmacokinetic properties and brain uptake of 52 were further determined in mice after i.p. administration. The compound was administered at a dose of 10 mg/kg in 3% DMSO + 20% Captisol in water. The concentration of 52 was monitored in the plasma and the brain at six time points over 6 h (Figure 5).
The method described below was successfully applied to a pharmacokinetic study of 52 in mice (male Albino Swiss) after i.p. injection. Compound 52 was administered to mice at a dose of 10 mg/kg i.p. At 0.25, 0.50, 1.0, 2.0, 4.0, and 6.0 h (three animals were used for one time point) the mice were anaesthetised by the use of Morbital (Biowet, Puławy, Poland), and the blood was collected from the portal vein to tubes containing 5% EDTA. The mice were then perfused with 0.1 M PBS to remove remaining blood from the body, and the brains were taken out for the analysis. Blood was centrifuged at 2000 rpm for 10 min at 4 °C, and the plasma was collected and frozen at −80 °C for further analysis. Plasma and tissue samples from all drug-treated animals were thawed at room temperature prior to use. Standard protocol of sample preparation: 200 µL of acetonitrile was added to the Eppendorf tubes with 50 µL of studied plasma samples or tissue homogenate. Samples were mixed for 5 min on a mixer at 25 °C and 1400 rpm. Tubes were then centrifuged at 2000 × g for 15 min at 4 °C. A total of 180 µL of each supernatant was transferred to a plate well. Finally, each sample was injected onto the LC-MS column. Calibration curve serial dilution method: Plasma was spiked with a standard at different concentrations. Acetonitrile was added. After mixing and centrifugation, the supernatant was collected.
Plasma and tissue samples from all drug-treated animals at selected time points were analysed using a previously developed non-validated LC-MS/MS method. […] LC-MS analysis was carried out on a Bruker amaZon SL mass spectrometer using positive/negative ion ESI mode. Chromatographic separation was achieved on an Ascentis Express C18 column (5 cm × 2.1 mm, […], Supelco Technologies) at room temperature with a thermostatted column oven. A gradient elution of eluents A (acetonitrile (LiChrosolv, Reag. Ph Eur) + 0.1% formic acid (Sigma Aldrich, 98–100%)) and B (water +0.1% formic acid) was used for separation. The flow rate was set at 1 ml/min. The injection volume was 20 µL, and the time of injection was 4 min.

A further data set deals with T1, mGlu7 receptor (Homo sapiens, UniProt Q14831).
T1 construct: mGlu4 receptor NM_000841, mGlu7 receptor NM_000844.2, and mGlu8 receptor NM_000845; expressed in transfected cells; host or cells: T-REx 293
The experiment in a line: cAMP accumulation assay in cells expressing mGlu7 receptor (agonist, PAM, NAM modes). It is filed as cell-based. As to conditions: 10 µM, agonist mode. Here is the method: (§1) The compounds were tested in the agonist, PAM (in the presence of EC20 concentration of L-Glu) or NAM (with EC80 of L-Glu) modes of forskolin-induced cAMP using T-REx 293 cells expressing the protein of a given receptor.
(§2) Figure 4. The activity of compounds 34, 37, 49, 52, 60, 62 and reference drugs MMPIP (a selective NAM of mGlu7 receptor) and AZ12216052 (a PAM of mGlu8 receptor) tested at a concentration of 10 μM in the cAMP accumulation assay in cells expressing mGlu7 and mGlu8 receptors. The percent activity refers to two extreme FRET signals: 0% corresponds to forskolin treatment alone and 100% to maximal FRET signal for the control cells (without any treatment). A/D – agonistic activity; B/E – PAM activity measured in the presence of L-Glu at the EC20 concentration (0.1 mM for mGlu7 receptor, and 1 μM for mGlu8 receptor); C/F – NAM activity measured in the presence of L-Glu at the EC80 concentration (1 mM for mGlu7 receptor, 10 μM for Glu8 receptor).
(§3) Determination of the intracellular cAMP through a homogeneous time-resolved fluorescence (HTRF) cAMP dynamic 2 kit from Cisbio (Codolet, France) was described previously by Chruścicka et al.[91]. Briefly, cells were grown in DMEM supplemented with 10% foetal bovine serum (FBS) (tetracycline free). Forty-eight hours before the experiments, mGlu receptor expression was induced by the addition of 0.75 µg/mL tetracycline. Twenty hours before the experiment, FBS and L-Glu were removed from the medium. Thereafter, the cells were scraped and centrifuged. A cell pellet was suspended in Hanks-HEPES (130 mM NaCl, 5.4 mM KCl, 1.8 mM CaCl2, 0.8 mM MgSO4, 0.9 mM NaH2PO4, 20 mM HEPES, and 3.25 mM glucose; pH 7.4). Then, the cell suspension was incubated in the presence of 10 µM forskolin (or 3 µM forskolin for mGlu7 receptor), the agonist L-glutamate and a compound for 5 min. Next, 10 µl of the cell suspension was mixed with 5 µl of cAMP-d2 conjugate and 5 µL of anti-cAMP cryptate conjugate. After 1 h of incubation at rt, the fluorescence at 620 nm and 665 nm was read (Tecan Infinite M1000). The results were calculated as the 665 nm/620 nm ratio multiplied by 10^4. Each sample was prepared in triplicate.

The next data set has as its target T2, mGlu8 receptor (Homo sapiens, UniProt O00222).
T2 construct: mGlu4 receptor NM_000841, mGlu7 receptor NM_000844.2, and mGlu8 receptor NM_000845; expressed in transfected cells; host or cells: T-REx 293
In words: cAMP accumulation assay in cells expressing mGlu8 receptor (agonist, PAM, NAM modes). It is filed as cell-based. As to conditions: 10 µM, agonist mode. The protocol:
as §1, §2, §3
On the technique in general: cAMP levels reflect the balance of adenylyl cyclase and phosphodiesterase activity.

The next data set deals with T3, mGlu4 receptor (Homo sapiens, UniProt Q14833).
T3 construct: mGlu4 receptor NM_000841, mGlu7 receptor NM_000844.2, and mGlu8 receptor NM_000845; expressed in transfected cells; host or cells: T-REx 293
The experiment in a line: forskolin-induced cAMP assay, agonist mode, T-REx 293 cells. Format: cell-based. Here is the method:
as §1, §3

[2] abbreviates: over the doses 2.5, 5 and 10 mg/kg i.p.
Where [3] appears, read: 2.5 mg/kg i.p., 60 min before test.
Setting [4] is: 10 mg/kg i.p., 60 min before test.

“Also recorded” adds a separate entry of the source. Like-named read-outs stand apart in the source and are kept apart here.

T1 sequence (Q14831 35-915): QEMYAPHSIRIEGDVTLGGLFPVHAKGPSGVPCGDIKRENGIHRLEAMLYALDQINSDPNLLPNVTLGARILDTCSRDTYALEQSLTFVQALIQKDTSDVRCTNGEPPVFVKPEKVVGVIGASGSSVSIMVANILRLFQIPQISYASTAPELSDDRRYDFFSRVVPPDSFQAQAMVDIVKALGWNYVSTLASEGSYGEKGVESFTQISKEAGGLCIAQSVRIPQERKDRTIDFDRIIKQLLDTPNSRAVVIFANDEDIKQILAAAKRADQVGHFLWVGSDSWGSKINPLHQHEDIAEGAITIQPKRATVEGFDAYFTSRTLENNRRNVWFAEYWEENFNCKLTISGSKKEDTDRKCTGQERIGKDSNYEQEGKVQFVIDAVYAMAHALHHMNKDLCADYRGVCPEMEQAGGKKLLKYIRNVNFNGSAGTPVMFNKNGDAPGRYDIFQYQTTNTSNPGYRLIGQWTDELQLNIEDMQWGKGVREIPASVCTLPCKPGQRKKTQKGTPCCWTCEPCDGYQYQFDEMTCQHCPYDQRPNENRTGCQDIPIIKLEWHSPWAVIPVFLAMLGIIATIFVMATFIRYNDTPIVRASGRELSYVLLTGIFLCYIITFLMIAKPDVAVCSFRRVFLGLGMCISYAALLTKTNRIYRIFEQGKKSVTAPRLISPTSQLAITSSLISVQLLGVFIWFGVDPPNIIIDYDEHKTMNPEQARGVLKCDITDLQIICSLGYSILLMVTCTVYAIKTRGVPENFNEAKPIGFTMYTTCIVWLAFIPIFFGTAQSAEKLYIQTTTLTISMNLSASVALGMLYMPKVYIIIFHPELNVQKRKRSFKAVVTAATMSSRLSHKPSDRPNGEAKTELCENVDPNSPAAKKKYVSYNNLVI
T2 sequence (O00222 34-908): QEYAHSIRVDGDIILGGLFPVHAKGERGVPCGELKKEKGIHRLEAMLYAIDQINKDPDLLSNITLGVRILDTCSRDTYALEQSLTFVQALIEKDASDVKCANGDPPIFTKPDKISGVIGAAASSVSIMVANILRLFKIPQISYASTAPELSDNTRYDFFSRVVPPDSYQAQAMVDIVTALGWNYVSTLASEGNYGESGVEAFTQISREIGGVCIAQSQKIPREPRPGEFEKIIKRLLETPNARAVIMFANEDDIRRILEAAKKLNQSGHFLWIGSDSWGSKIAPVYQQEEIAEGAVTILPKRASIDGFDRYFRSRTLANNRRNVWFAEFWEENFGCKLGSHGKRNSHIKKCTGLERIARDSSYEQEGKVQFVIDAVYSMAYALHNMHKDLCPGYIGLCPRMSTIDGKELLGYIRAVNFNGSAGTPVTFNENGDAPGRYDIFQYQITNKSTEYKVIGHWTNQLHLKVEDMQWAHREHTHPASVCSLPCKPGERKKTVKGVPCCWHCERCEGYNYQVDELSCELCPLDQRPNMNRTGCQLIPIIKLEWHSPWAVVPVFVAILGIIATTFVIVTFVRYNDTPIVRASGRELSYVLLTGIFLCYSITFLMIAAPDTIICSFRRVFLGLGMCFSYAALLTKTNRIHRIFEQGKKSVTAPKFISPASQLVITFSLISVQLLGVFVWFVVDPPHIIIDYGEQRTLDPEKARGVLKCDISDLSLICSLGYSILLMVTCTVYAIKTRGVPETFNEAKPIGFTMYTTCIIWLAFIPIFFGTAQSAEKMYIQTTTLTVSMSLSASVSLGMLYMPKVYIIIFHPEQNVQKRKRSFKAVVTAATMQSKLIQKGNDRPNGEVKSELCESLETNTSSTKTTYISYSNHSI
T3 sequence (Q14833 33-912): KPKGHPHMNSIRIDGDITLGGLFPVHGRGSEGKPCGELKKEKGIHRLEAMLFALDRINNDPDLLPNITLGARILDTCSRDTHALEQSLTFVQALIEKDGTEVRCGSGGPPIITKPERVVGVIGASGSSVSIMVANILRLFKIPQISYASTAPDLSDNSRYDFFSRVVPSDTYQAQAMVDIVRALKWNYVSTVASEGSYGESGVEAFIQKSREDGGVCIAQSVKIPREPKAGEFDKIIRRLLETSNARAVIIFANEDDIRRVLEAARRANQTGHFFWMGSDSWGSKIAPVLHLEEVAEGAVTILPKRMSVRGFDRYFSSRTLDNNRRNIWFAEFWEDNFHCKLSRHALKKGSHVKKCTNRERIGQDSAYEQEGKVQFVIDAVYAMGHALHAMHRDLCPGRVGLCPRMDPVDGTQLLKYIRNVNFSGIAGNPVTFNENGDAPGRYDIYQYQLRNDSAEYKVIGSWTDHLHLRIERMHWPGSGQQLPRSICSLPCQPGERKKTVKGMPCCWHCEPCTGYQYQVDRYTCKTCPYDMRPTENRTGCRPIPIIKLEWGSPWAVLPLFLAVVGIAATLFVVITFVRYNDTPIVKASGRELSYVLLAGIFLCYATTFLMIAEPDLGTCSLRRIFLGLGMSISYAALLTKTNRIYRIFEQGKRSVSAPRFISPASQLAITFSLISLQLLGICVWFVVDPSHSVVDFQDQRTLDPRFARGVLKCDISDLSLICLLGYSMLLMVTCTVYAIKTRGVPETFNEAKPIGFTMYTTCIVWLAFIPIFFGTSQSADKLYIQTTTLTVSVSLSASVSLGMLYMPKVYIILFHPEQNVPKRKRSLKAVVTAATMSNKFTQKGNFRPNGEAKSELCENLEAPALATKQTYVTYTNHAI

Regarding `O=C(Nc1ccc(-c2noc(-c3ccccc3Cl)n2)c(Cl)c1)c1ccccn1` [Compound 52, N-(3-chloro-4-(5-(2-chlorophenyl)-1,2,4-oxadiazol-3-yl)phenyl)picolinamide], in the data set with Albino Swiss mice (setting [2]), the “effect on DOI-induced HTR” value was “significant anxiolytic- and antipsychotic-like properties; also recorded: at all doses significantly reduced; also recorded: Clear dose-response effects”. In data set [1] (brain), the maximum brain concentration came to 949.76 ng/mL, the AUC worked out at 5.64 µM·h, the Cmax is 2120 nM and the half-life was 136 min. Besides, in data set [1] (brain, read-out: Tmax (converted)), the Tmax is 30 min. In addition, in data set [1] (plasma), the AUC amounted to 0.37 µM·h, the Cmax is 540 nM, the half-life was 66 min and the maximum plasma concentration is reported as 243.22 ng/mL. In data set [1] (plasma, read-out: Tmax (time at maximum observed concentration)), the Tmax is 15 min. The “agonistic activity at mGlu7 receptor” value at mGlu7 receptor is listed as “direct agonistic activity”. The “agonistic activity at mGlu8 receptor” value at mGlu8 receptor is given as “direct agonistic activity”.

`O=C(Nc1ccc(-c2noc(-c3ccccc3Cl)n2)c(C(F)(F)F)c1)c1ccccn1` [Compound 60]: the “effect on DOI-induced HTR” value is “significant reductions in the HTR score” with Albino Swiss mice (setting [3]); “not statistically significant” in the data set on Albino Swiss mice (5 mg/kg i.p., 60 min before test); “significant reductions in the HTR score” in the data set with Albino Swiss mice (setting [4]); “significant anxiolytic- and antipsychotic-like properties” in the data set with Albino Swiss mice (setting [2]). Besides, at mGlu7 receptor, the “agonistic activity at mGlu7 receptor” value is on record as “direct agonistic activity”. The “agonistic activity at mGlu8 receptor” value on mGlu8 receptor is “direct agonistic activity”.

As for `COc1cc(NC(=O)c2ccccn2)ccc1-c1noc(-c2ccccc2F)n1` [Compound 37], in the data set on Albino Swiss mice (setting [2]), the “effect on DOI-induced HTR” value is “significant anxiolytic- and antipsychotic-like properties; also recorded: reversed the DOI-induced effect at all investigated doses; also recorded: dose-dependent reverse effects”. The “agonistic activity at mGlu7 receptor” value on mGlu7 receptor is listed as “direct agonistic activity”. For the same compound, the “agonistic activity at mGlu8 receptor” value at mGlu8 receptor is listed as “direct agonistic activity”. At mGlu4 receptor, this compound returned an EC50 of 3940 nM.

In the case of `COc1cc(NC(=O)c2ccccn2)ccc1-c1noc(-c2ccccc2Cl)n1` [Compound 34], the “effect on DOI-induced HTR” value in the data set on Albino Swiss mice (setting [3]) was “statistically significant effect; also recorded: significant reductions in the HTR score”; in the data set on Albino Swiss mice (setting [4]) it was “statistically significant effect; also recorded: significant reductions in the HTR score”; in the data set on Albino Swiss mice (setting [2]) it was “significant anxiolytic- and antipsychotic-like properties”. The “agonistic activity at mGlu7 receptor” value at mGlu7 receptor is reported as “direct agonistic activity”. Further, the “agonistic activity at mGlu8 receptor” value on mGlu8 receptor is on record as “direct agonistic activity”. Besides, it took 1110 nM to reach a half-maximal effect on mGlu4 receptor (EC50).

Broadly, the AUC is the area under the concentration-time curve, a measure of exposure. For orientation: EC50 means the midpoint of the concentration-response curve.

The values are drawn from paper PMC8667925, “New 1,2,4-oxadiazole derivatives with positive mGlu4 receptor modulation activity and antipsychotic-like properties” (Journal of Enzyme Inhibition and Medicinal Chemistry, 2021).
